Like-named read-outs stand apart in the source and are kept apart here.
System: BRD
Experiment: BRD reducing activity with added metal ions and inhibitors
Type: biochemical, Micrococcus luteus IFO 13867
[1] = addition level 1 mM, activity without addition = 100%
[2] = addition level 0.01 mM, activity without addition = 100%
[3] = addition level 0.1 mM, activity without addition = 100%

Work on `CCN1C(=O)C=CC1=O` [NEM] yielded a Relative activity [1] of 94%.
Compound `O=S(=O)([O-])[O-].[Zn+2]` [ZnSO4] has a Relative activity [1] of 99%.
In the case of `O=C(O)c1cc(SSc2ccc([N+](=O)[O-])c(C(=O)O)c2)ccc1[N+](=O)[O-]` [DTNB], the Relative activity [2] is reported as 93%.
`[Cl-].[Cl-].[Co+2]` [CoCl2] gave a Relative activity of 99%.
Compound `O=C1NC(=O)C(c2ccccc2)(c2ccccc2)N1` [5,5-Diphenylhydantoin] has a Relative activity (addition level 0.5 mM, activity without addition = 100%) of 99%.
Compound `O=C(O)c1cc[c]([Hg][Cl])cc1` [PCMB] has a Relative activity [3] of 78%.
In the case of `O=S(=O)(F)Cc1ccccc1` [PMSF, phenylmethylsulfonyl fluoride], the Relative activity [1] is reported as 89%.
`[Cl][Mn][Cl]` [MnCl2] showed a Relative activity [1] of 89%.
`O=S(=O)([O-])[O-].[Cu+2]` [CuSO4] was tested, and the Relative activity [3] was 6%, the Relative activity [1] was 5% and the “Inhibition of the enzyme” value (result in words) was “inhibited”.
Work on `O=S(=O)([O-])[O-].[Mg+2]` [MgSO4] yielded a Relative activity [1] of 99%.
In the case of `O=c1c(O)c(-c2ccc(O)c(O)c2)oc2cc(O)cc(O)c12` [Quercetin], the Relative activity [2] is reported as 94%.
`c1cnc2c(c1)ccc1cccnc12` [1,10-Phenanthroline] gave a Relative activity [1] of 90%.
Work on `O=C(O)CN(CCN(CC(=O)O)CC(=O)O)CC(=O)O` [EDTA] yielded a Relative activity of 88%.
Compound `O=C(O)CI` [Iodoacetic acid] has a Relative activity of 89%.

— US7033808B2, “Carbonyl reductase, gene thereof and method of using the same” (Kaneka Corporation, priority 2000, dated 2006)
